Experimental data from patent US12502430B2, “Compound for photodynamic therapy of cancer, composition including same, and method for photodynamic therapy of cancer” (Pukyong National University Industry-University Cooperation …, priority 2021, dated 2025).

Legend:
[1] = UV-Vis absorption and fluorescence emission spectroscopy; type: physicochemical; conditions: in Toluene
From the text: The photophysical properties of the collected products were studied by UV-Vis absorption and fluorescence emission spectroscopy, and the results are shown in FIGS. 1A to 1B and Table 1. In the UV-Vis absorption spectrum, BO and NO show absorption peaks in the region of about 380 nm, and BS and NS show absorption maximum values in the region of about 435 nm. The difference in the absorption peak may be confirmed from the shape difference of the HOMO-LUMO of FIG. 2A.

HeLa cells [2] = assay: MTT photo/dark cytotoxicity assay with blue light irradiation; type: cell-based; conditions: for cell viability (dark cytotoxicity): MTT, FIGS. 3A and 3B, 20 μM printed for BS; for IC50: normoxia, after blue light irradiation, read-out: IC50 (photocytotoxicity); for cancer cell toxicity without light: working concentration; for cell death under blue light irradiation: both normoxia and hypoxia
Protocol: Cell toxicity was evaluated by treating HeLa cells with 10 μM NS and BS solutions, respectively, incubating cells for 30 minutes, and then irradiating blue light (blue LED, 80 mW/cm^2) for 5 minutes. The results are shown in FIGS. 3A to 3C and FIGS. 4A to 4D. Based on the ^1O2 generation efficiency and photostability of BS and NS of FIGS. 3A to 3C, photo/dark cytotoxicity to HeLa cells was observed using MTT (traditional methyl thiazolytetralium) assay. FIGS. 3A and 3B show viability of 85% in BS (20 μM) and 97% in NS. The introduction of the C═S bond leads to a highly efficient ISC process, improving the generation of type I and type II ROS, thereby resulting in high ^1O2 quantum yield as well as O2· production. […] NS induces higher photocytotoxicity than BS by higher oxygen quantum yield and may be utilized as a phototheranostic agent with a low IC50 value in normoxia. Further, in FIG. 3C, NS (3 μM) has a cell viability of 29.6% under a normoxia condition and a cell viability of 36.5% under a hypoxia condition (mixed gas: 5% CO2, 1% O2 and 94% N2) so as to effectively induce photocytotoxicity to HeLa cells.

[3] = Singlet oxygen quantum yield determination; type: physicochemical; conditions: determined with respect to Ru(bpy)3^2+; — = not observed
From the text: Compounds BO and NO show strong fluorescence (ΦFBO=0.71, ΦF NO=0.28), but ISC is inefficient due to weak spin-orbit coupling (SOC).

HeLa cells [4] = assay: DCFH-DA ROS fluorescence imaging after blue LED irradiation; type: cell-based; conditions: 5 μM, DCFH-DA 10 μM, blue LED 5 minutes
Protocol: FIG. 4A is a diagram illustrating a fluorescence image of live HeLa cells after incubation in BS (5 μM) and DCFH-DA (10 μM) for 30 minutes, and FIG. 4C is a diagram illustrating a BS fluorescence image after light irradiation under blue LED light for 5 minutes thereafter (λ=473 nm and λem=490 to 590 nm) according to an example embodiment of the present disclosure in which these compounds were dissolved in DMSO.
FIG. 4B is a diagram illustrating s a fluorescence image of live HeLa cells after incubation in NS (5 μM) and DCFH-DA (10 μM) for 30 minutes according to an example embodiment of the present disclosure, and FIG. 4D is a diagram illustrating an NS fluorescence image after light irradiation under blue LED light for 5 minutes thereafter (λex=473 nm and λem=490 to 590 nm) in which these compounds were dissolved in DMSO.
Finally, their fluorescence is completely recovered after hypochlorite anion (OCl^−) treatment using the OCl^− probe of live HeLa cells. […] It may be confirmed that the C═S group plays an important role in the generation of type I ROS of previously unreported photosensitizers (PS).

HeLa cells [5] = assay: Bio-imaging of OCl− by confocal fluorescence microscopy; type: cell-based; conditions: 10 μM, 10 minutes, then OCl− 10 minutes
Protocol: HeLa cells were treated with 10 μM NS and BS solutions, respectively. Then, HeLa cells were incubated for 10 minutes and then incubated with hypochlorous acid (OCl^−) for 10 minutes to perform hypochlorous acid (OCl^−) detection fluorescence signal and bioimaging.

[6] = Response and selectivity for detection of OCl− (UV-Vis and fluorescence); conditions: 20 μM; for isosbestic point in UV-vis titration with OCl−: NaClO 0 to 75 μM, PBS pH 7.4 with 50% THF; for selectivity for OCl− among ROS, RNS and metal ions: OCl− 60 μM, PBS pH 7.4/THF (5/5); for fluorescence wavelength at which intensity was read: PBS buffer 10 mM pH 7.4 containing 50% THF
Protocol: Fluorescence intensity ratios were measured for each of BS and NS in […] (10 mM, pH=7.4) containing 50% THF at the presence of OCl^− (60 μM), ROO·(1 mM), NO·(1 mM), H2O2 (1 mM), TBHP (1 mM), ONOO^− (100 μM), ·OH (200 μM) and various metal ions (200 μM): Ag^+, Hg^2+, Fe^2+, and other ions (Ni^2+, Cu^2+, Zn^2+, Cd^2+, Mg^2+, Ca^2+, Cr^3+, Mn^2+, Fe^3+, Li^+, Na^+, K^+, Cs^+). Recognition of ROS, RNS and metal cations by BS and NS was investigated through colorimetric changes, UV absorption and fluorescence emission changes in PBS 7.4 pH/THF (5/5).
Similarly, in FIG. 6C, the broad absorption band decreases in the 420 to 600 nm range of the NS solution, whereas the absorption band at 370 nm gradually increases with OCI^−-addition (a characteristic of NO).
In Scheme 3, the photophysical change by oxidative desulfurization from the C═S groups of BS and NS to the corresponding C═O groups of BO and NO by hypochlorous acid (OCl^−) may be shown.

O=c1c2cccc3cccc(c32)c2nc3ccccc3n12 [BO, reference compound]
ΔV (Stock shift) [1]: 105 nm
ε × 10^3 [1]: 8.54 × 10^3 M^−1 cm^−1
λems [1]: 488 nm
ΦF (fluorescence quantum yield) ([1]; Rhodamine 6G as the standard, — = not observed): 0.71

S=c1c2cccc3cccc(c32)c2nc3ccccc3n12 [BS]
cell viability (dark cytotoxicity) (HeLa cells [2]; HeLa cells): 85%
IC50 (HeLa cells [2]; HeLa cells): 5.81 µM
cancer cell toxicity without light (HeLa cells [2]; HeLa cells): negligible cancer cell toxicity
cell death under blue light irradiation (HeLa cells [2]): rapidly induce cell death
ΦΔ (singlet oxygen quantum yield) [3]: 0.66
ΔV (Stock shift) [1]: 66 nm
ε × 10^3 [1]: 10.85 × 10^3 M^−1 cm^−1
λems [1]: 495 nm
ROS generation (DCFH-DA green signal) (HeLa cells [4]): may generate ROS
intracellular OCl− detection (HeLa cells [5]): adequately detect OCl^−
isosbestic point in UV-vis titration with OCl− [6]: 403 nm
selectivity for OCl− among ROS, RNS and metal ions [6]: high selectivity
fluorescence wavelength at which intensity was read [6]: 505 nm

S=c1c2cccc3cccc(c32)c2nc3cc4ccccc4cc3n12 [NS]
cell viability, hypoxia (HeLa cells [2]; HeLa cells, 3 μM, hypoxia condition (5% CO2, 1% O2 and 94% N2), light): 36.5%
cell viability, normoxia (HeLa cells [2]; HeLa cells, 3 μM, normoxia condition, light): 29.6%
cell viability (dark cytotoxicity) (HeLa cells [2]; HeLa cells): 97%
IC50 (HeLa cells [2]; HeLa cells): 1.03 µM
cancer cell toxicity without light (HeLa cells [2]; HeLa cells): negligible cancer cell toxicity
cell death under blue light irradiation (HeLa cells [2]): rapidly induce cell death
ΦΔ (singlet oxygen quantum yield) [3]: 0.81
ΔV (Stock shift) [1]: 110 nm
ε × 10^3 [1]: 17.87 × 10^3 M^−1 cm^−1
λems [1]: 551 nm
ROS generation (DCFH-DA green signal) (HeLa cells [4]): may generate ROS
intracellular OCl− detection (HeLa cells [5]): adequately detect OCl^−
isosbestic point in UV-vis titration with OCl− [6]: 411 nm
selectivity for OCl− among ROS, RNS and metal ions [6]: high selectivity
fluorescence wavelength at which intensity was read [6]: 559 nm
